Source: patent publication US20240018105A1, “TROPOLONE DERIVATIVES AND TAUTOMERS THEREOF FOR IRON REGULATION IN ANIMALS” (Kinesid Therapeutics, Inc., priority 2019, published 2024)

Experiment: Ligand facilitated Fe(III) efflux from liposomes
Conditions: 10 uM ligand concentration; Table 1
Description: Assay 1: Ligand Facilitated Fe(III) Efflux from Liposomes Preparation of POPC (1-palmitoyl-2-oleoyl-sn-glycero-3-phosphocholine): Cholesterol Liposomes:
A 1M buffer solution of MES and Tris was prepared by dissolving 121.14 grams of Tris base and 213.25 grams of MES hydrate in 500 mL of MilliQ water and adjusted to pH7.0 using an […] HCl solution before bringing the total volume of the solution to 1 L. A 500 mM solution of FeCl3 was prepared by dissolving 0.811 grams of anhydrous FeCl3 in 10 mL of a 0.1M H2SO4 aqueous solution. Inside buffer is prepared in a 50 mL falcon tube, which was added with 25 mL of MilliQ water, 1.61 g of sodium citrate, 1.5 mL of the above FeCl3 solution, and 2.5 mL of the 1M MES/Tris HCl buffer (pH=7.0), and finally additional MilliQ H2O to bring to a 50 mL final volume.
Lipid solution is prepared by dissolving 206.9 mg of POPC (1-palmitoyl-2-oleoyl-sn-glycero-3-phosphocholine) and 8.6 mg of cholesterol in 10 mL of ethanol.
The lipids solution and the inside buffer solution are independently loaded into 10 mL luer lock syringes for loading into a virgin cartridge on a Precision Nanosystems NanoAssembler to prepare unilamaller liposomes with the following parameters: 7.5 mL total volume, 1.5:1 mixing ratio of inside buffer:lipids solution, 8 mL/min flow rate, ambient temperature, 0.35 mL start waste, and 0.05 mL of end waste. 7.5 mL of liposomes is harvested for purification on a 6-inch long, 1-inch diameter Sephadex G-50 column wetted in 600 mM sodium ascorbate and 50 mM MES/Tris HCl pH 7.0 buffer. This buffer also serves as the column running buffer. The crude liposome solution is carefully loaded with minimal volume of running buffer above the top of the Sphadex, allowed to enter the matrix, and the column is run with the continued addition of running buffer. The eluting liposomes, observed as a milky and turbid solution, are collected until free iron begins to elute (observed as a deep purple color) and the fractions are pooled for phosphorus quantitation.
Phosphorus content of eluted liposomes was determined by the process outlined below. 10 uL of liposome elution and a running buffer blank are added to a 5 mL glass vial containing 450 uL of a 8.9 M aqueous H2SO4 solution, the mixture is heated to 225° C. for 25 minutes in an aluminum heat block to hydrolyze POPC and cooled for 5 minutes. 200 ul of a 30% hydrogen peroxide aqueous solution is added to each vial and heated to 225° C. for 25 minutes. After cooling, the phosphorus content was determined using an Abcam Phosphate Assay kit, with buffer subtracted phosphorus levels determined against a standard curve of phosphate included in the kit. Liposomes were diluted to 1 mM phosphate in Running Buffer for use in assays after accounting for dilutions made during phospholipid digestion.
Determination of the rate at which a small molecule ligand liberates (transport) Ferric iron from liposomes is performed in clear bottom black 384-well plates on a Spectramax i3x set to read the absorbance at 562 nm in the kinetic mode every 60 seconds for 120 minutes. 1 uL of serially diluted DMSO stock solution of a small molecule ligand is added to wells in triplicate to give the final concentrations of 40, 20, 10, 5, 2.5, and 1.25 uM of the ligand at 80 μL final volume, followed by addition of 1 μL of 100 mM Ferrozine in water to give a final concentration of 1 mM ferrozine. 78 uL of liposomes diluted to 1 mM phosphorus in running buffer is added to wells as quickly as possible (using a digital repeater mulchannel pipette) with the kinetic read initiated as rapidly as possible after addition of liposomes to all wells. Typically, eight compounds at six concentrations are tested in triplicate simultaneously.
Upon completion of kinetic read, the data for individual reads is fitted to a single phase association regression with the equation Y=(Y0−YMax)^(−kX)+YMax, with Y being the 562 absorbance value and X being time in minutes. […]

SMILES	Liposome Fe transport kefflux at 10 10 μM
O=c1cccc(-c2ccncc2)cc1O [Ex.7, 2-hydroxy-4-(pyridin-4-yl)cyclohepta-2,4,6-trien-1-one]	0.1-5
Nc1ccc(-c2cccc(=O)c(O)c2)cn1 [Ex.13, 4-(6-aminopyridin-3-yl)-2-hydroxycyclohepta-2,4,6-trien-1-one]	0.1-5
Cc1ccncc1-c1cccc(=O)c(O)c1 [Ex.14, 2-hydroxy-4-(4-methylpyridin-3-yl)cyclohepta-2,4,6-trien-1-one]	0.1-5
Cc1nc(C)c(-c2cccc(=O)c(O)c2)cc1F.O=C(O)C(F)(F)F [Ex.20, 4-(5-fluoro-2,6-dimethylpyridin-3-yl)-2-hydroxycyclohepta-2,4,6-trien-1-one]	0.1-5
Cc1nc(C)c(-c2ccc(O)c(=O)cc2)cc1F.O=C(O)C(F)(F)F [Ex.21, 5-(5-fluoro-2,6-dimethylpyridin-3-yl)-2-hydroxycyclohepta-2,4,6-trien-1-one]	0.1-5
O=c1ccc(-c2ccc(F)cn2)ccc1O [Ex.22, 5-(5-fluoropyridin-2-yl)-2-hydroxycyclohepta-2,4,6-trien-1-one]	0.1-5
Cc1cc(-c2ccc(F)cn2)ccc(O)c1=O.O=C(O)C(F)(F)F [Ex.25, 4-(5-fluoropyridin-2-yl)-7-hydroxy-2-methylcyclohepta-2,4,6-trien-1-one]	5-7.5
Cc1cccc(-c2cncc(F)c2)c(=O)c1O.O=C(O)C(F)(F)F [Ex.27, 7-(5-fluoropyridin-3-yl)-2-hydroxy-3-methylcyclohepta-2,4,6-trien-1-one]	10-25
CSc1nccc(-c2ccccc(O)c2=O)n1 [Ex.40, 2-hydroxy-7-(2-(methylthio)pyrimidin-4-yl)cyclohepta-2,4,6-trien-1-one]	5-7.5
Nc1ncc(-c2cccc(=O)c(O)c2)cn1.O=C(O)C(F)(F)F [Ex.41, 4-(2-aminopyrimidin-5-yl)-2-hydroxycyclohepta-2,4,6-trien-1-one]	0.1-5
O=c1cccc(-c2ncccn2)cc1O [Ex.43, 2-hydroxy-4-(pyrimidin-2-yl)cyclohepta-2,4,6-trien-1-one]	5-7.5
O=c1ccc(-c2ncccn2)ccc1O [Ex.44, 2-hydroxy-5-(pyrimidin-2-yl)cyclohepta-2,4,6-trien-1-one]	0.1-5
Cc1cncc(-c2cccc(=O)c(O)c2)c1 [Ex.55, 2-hydroxy-4-(5-methylpyridin-3-yl)cyclohepta-2,4,6-trien-1-one]	0.1-5
Cc1ncc(F)cc1-c1ccc(O)c(=O)cc1 [Ex.60, 5-(5-fluoro-2-methylpyridin-3-yl)-2-hydroxycyclohepta-2,4,6-trien-1-one]	0.1-5

Same assay, conditions: 10 uM ligand concentration; Table 2

SMILES	Liposome Fe transport Kefflux at 10 μM
CC(C)c1cccc(-c2cncc(F)c2)c(=O)c1O [Ex.62, 7-(5-fluoropyridin-3-yl)-2-hydroxy-3-isopropylcyclohepta-2,4,6-trien-1-one]	<0.1
Cc1c(F)cncc1-c1ccc(O)c(=O)c(C)c1 [Ex.63, 4-(5-fluoro-4-methylpyridin-3-yl)-7-hydroxy-2-methylcyclohepta-2,4,6-trien-1-one]	10-25
Cc1c(F)cncc1-c1ccc(O)c(=O)c(C(C)C)c1 [Ex.64, 4-(5-fluoro-4-methylpyridin-3-yl)-7-hydroxy-2-isopropylcyclohepta-2,4,6-trien-1-one]	<0.1
O=c1ccc(Oc2ccc(F)cc2)ccc1O [Ex.65, 5-(4-fluorophenoxy)-2-hydroxycyclohepta-2,4,6-trien-1-one]	5-7.5
O=c1ccccc(-c2c(F)cccc2F)c1O [Ex.68, 3-(2,6-difluorophenyl)-2-hydroxycyclohepta-2,4,6-trien-1-one]	7.5-10
O=c1ccccc(-c2ncccc2F)c1O [Ex.71, 3-(3-fluoropyridin-2-yl)-2-hydroxycyclohepta-2,4,6-trien-1-one]	0.1-5
O=c1ccccc(-c2ccc(F)cn2)c1S [Ex.72, 3-(5-fluoropyridin-2-yl)-2-mercaptocyclohepta-2,4,6-trien-1-one]	7.5-10
O=C1C=CC(CCc2nc(-c3ccccc(=O)c3O)ccc2F)S1 (stereo not drawn) [Ex.74, 5-(2-(3-fluoro-6-(2-hydroxy-3-oxocyclohepta-1,4,6-trien-1-yl)pyridin-2-yl)ethyl)thiophen-2(5H)-one]	0.1-5
Cc1cccc(Oc2ccc(F)cc2F)c(O)c1=O [Ex.77, 3-(2,4-difluorophenoxy)-2-hydroxy-7-methylcyclohepta-2,4,6-trien-1-one]	0.1-5
Cc1cccc(Oc2ccccc2)c(O)c1=O [Ex.78, 2-hydroxy-7-methyl-3-phenoxycyclohepta-2,4,6-trien-1-one]	0.1-5
O=c1ccccc(-c2cocn2)c1O [Ex.79, 2-hydroxy-3-(oxazol-4-yl)cyclohepta-2,4,6-trien-1-one]	5-7.5
O=c1ccccc(-c2nccs2)c1O [Ex.80, 2-hydroxy-3-(thiazol-2-yl)cyclohepta-2,4,6-trien-1-one]	5-7.5
O=c1c(F)cccc(-c2cscn2)c1O [Ex.81, 7-fluoro-2-hydroxy-3-(thiazol-4-yl)cyclohepta-2,4,6-trien-1-one]	7.5-10
O=c1c(Cl)cccc(-c2cscn2)c1O [Ex.82, 7-chloro-2-hydroxy-3-(thiazol-4-yl)cyclohepta-2,4,6-trien-1-one]	0.1-5
O=c1ccc(F)cc(-c2cscn2)c1O [Ex.83, 5-fluoro-2-hydroxy-3-(thiazol-4-yl)cyclohepta-2,4,6-trien-1-one]	0.1-5
COC(=O)Cc1ccc(Oc2ccccc(=O)c2O)c(F)c1 [Ex.84, methyl 2-(3-fluoro-4-((2-hydroxy-3-oxocyclohepta-1,4,6-trien-1-yl)oxy)phenyl)acetate]	5-7.5
O=c1ccccc(-c2ccns2)c1O [Ex.85, 2-hydroxy-3-(isothiazol-5-yl)cyclohepta-2,4,6-trien-1-one]	0.1-5
COC(=O)c1ccc(Oc2ccccc(=O)c2O)c(F)c1 [Ex.86, methyl 3-fluoro-4-((2-hydroxy-3-oxocyclohepta-1,4,6-trien-1-yl)oxy)benzoate]	0.1-5
O=c1ccc(C(CO)Cc2ccccc2)cc(-c2cscn2)c1O (stereo not drawn) [Ex.87, 2-hydroxy-5-(1-hydroxy-3-phenylpropan-2-yl)-3-(thiazol-4-yl)cyclohepta-2,4,6-trien-1-one]	0.1-5
